Consider 14 compounds from ChEMBL document CHEMBL3297689, “Phenylalanine-Based Inactivator of AKT Kinase: Design, Synthesis, and Biological Evaluation” (ACS Med Chem Lett, 2014).

Active and inactive are the calls of the source. The rule behind the calls is not given here. Where a SMILES comes first, the peptide text is derived from it. [ ]: non-standard residue; d: D form. NMeV = CN[C@H](C(=O)O)C(C)C; GABA = NCCCC(=O)O

The target of assay [1] is T1, RAC-alpha serine/threonine-protein kinase (Homo sapiens, UniProt P31749). Briefly: Inhibition of AKT1 (unknown origin) after 1 hr by Z'-LYTE kinase assay in presence of 75 uM ATP.
The target in assay [2] is T1, RAC-alpha serine/threonine-protein kinase. The assay is described as follows: Inhibition of AKT1 (unknown origin) after 30 mins by scintillation counting analysis in presence of 100 uM ATP.
Assay [3] is described as follows: Growth inhibition of human HCT116 cells after 72 hrs by coulter counter method. It counts as functional, cell-based. Conditions: HCT-116, 72 h.
A further assay has as its system NCI-H460. Briefly: Growth inhibition of human NCI-H460 cells after 72 hrs by coulter counter method. The assay is classed as functional, cell-based. Particulars: NCI-H460, 72 h.
Assay [4] has as its target T1, RAC-alpha serine/threonine-protein kinase. The assay is described as follows: Binding affinity to AKT1 (unknown origin) assessed as covalent modification at Cys310 residue by mass spectrometry.

T1 sequence (P31749 whole entry): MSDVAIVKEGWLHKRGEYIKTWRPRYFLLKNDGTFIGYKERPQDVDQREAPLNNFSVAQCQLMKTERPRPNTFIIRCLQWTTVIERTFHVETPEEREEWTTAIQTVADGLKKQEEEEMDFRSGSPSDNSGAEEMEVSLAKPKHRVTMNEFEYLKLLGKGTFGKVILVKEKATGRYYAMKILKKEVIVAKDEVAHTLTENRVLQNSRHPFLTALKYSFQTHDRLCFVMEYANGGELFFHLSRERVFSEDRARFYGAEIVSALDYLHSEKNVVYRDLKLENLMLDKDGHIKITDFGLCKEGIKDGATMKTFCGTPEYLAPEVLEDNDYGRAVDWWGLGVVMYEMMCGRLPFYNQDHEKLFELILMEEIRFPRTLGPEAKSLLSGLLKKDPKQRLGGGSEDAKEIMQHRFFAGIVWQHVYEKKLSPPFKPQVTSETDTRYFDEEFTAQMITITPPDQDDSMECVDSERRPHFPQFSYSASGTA

In general, IC50 refers to the point on the concentration scale where inhibition reaches its midpoint. In the case of `CC(C)(C)OC(=O)NN(Cc1ccccc1)C(=O)CN1C(=O)C=CC1=O`, the IC50 in assay [1] came to 4.68 µM.

For the compound `COC[C@H](NC(=O)[C@H](Cc1ccc(O)cc1)NC(=O)[C@H](C(C)C)N(C)C(=O)[C@H](CCCNC(=N)N)NC(=O)[C@@H]1CCCN1C(=O)[C@@H](N)CCCNC(=N)N)C(=O)NCCCC(=O)O` (H-RPR[NMeV]YS(Me)[GABA]-OH), the IC50 in assay [2] was determined as 0.2 µM.

Regarding `CC(C)(C)OC(=O)NN(Cc1ccccc1)C(=O)CCl`, the IC50 in assay [1] was greater than 100 µM.

As for `CC(C)(C)OC(=O)NN(Cc1ccccc1)C(=O)CI`, in assay [1], the IC50 worked out at 16.1 µM.

Consider `CC(C)(C)OC(=O)N[C@@H](Cc1ccccc1)C(=O)NCCI`, for which the IC50 in assay [1] is greater than 100 µM.

`C=CC(=O)N(Cc1ccccc1)NC(=O)OC(C)(C)C`: the IC50 in assay [1] is greater than 100 µM.

Take `NC1(c2ccc(-c3nc4ccn5c(=O)[nH]nc5c4cc3-c3ccccc3)cc2)CCC1` [MK-2206]: the IC50 in assay [3] stood at 7.5 µM; in the assay on NCI-H460, 5.4 µM.

Turning to `CC(C)(C)OC(=O)N[C@@H](Cc1ccccc1)C(=O)NCCCl`, the IC50 in assay [1] was greater than 100 µM.

Turning to `CC(C)(C)OC(=O)N[C@@H](Cc1ccccc1)C(=O)NCCN1C(=O)C=CC1=O`, the IC50 in assay [1] is 4.48 µM.

As to `CC(C)(C)OC(=O)N[C@@H](Cc1ccccc1)C(=O)NCCBr`, the IC50 in assay [1] is greater than 100 µM.

For the compound `CCC(=O)[C@H](Cc1ccccc1)NC(=O)OC(C)(C)C`, the half-inhibitory concentration (IC50) (in assay [1]; in assay [3]; in the assay on NCI-H460) was greater than 100 µM throughout.

`CCn1c(-c2nonc2N)nc2c(C#CC(C)(C)O)ncc(OC[C@H]3CCCNC3)c21` [GSK-690693]: the IC50 worked out at 8.2 µM in assay [3] and 5.4 µM in the assay on NCI-H460.

As to `C=CC(=O)[C@H](Cc1ccccc1)NC(=O)OCc1cn(CCCCCCNC(=S)Nc2ccc(-c3c4ccc(=O)cc-4oc4cc(O)ccc34)c(C(=O)O)c2)nn1`, the result in assay [4] was Active.

On to `CC(C)(C)OC(=O)NN(Cc1ccccc1)C(=O)CBr`, for which the IC50 in assay [1] is 24.7 µM.
